This is an account of results in US8415469B2, “Compounds and methods for kinase modulation, and indications therefor” (Plexxikon Inc., priority 2005, dated 2013).

The structures appear in SMILES notation. pIC50: −log10 of the molar value. A value given as a limit tells only on which side of the number the result lay.

The subject of data set [1] is AML blasts harboring FLT3/ITD mutations. The note with it: primary AML blasts harboring FLT3/ITD mutations; cited from earlier work.
Data set [2] relates to primary cultures of human and murine microglia. The note with it: stimulated with endotoxins or Abeta 1-40; cited from earlier work.
A further data set deals with brain TNF production. The note with it: mice, intracerebroventricular lipopolysaccharide; cited from earlier work.
In a further data set the target is T1, B-Raf (Homo sapiens, UniProt P15056).
T1 construct: purchased Upstate Biotechnology
T1 sequence (P15056 whole entry): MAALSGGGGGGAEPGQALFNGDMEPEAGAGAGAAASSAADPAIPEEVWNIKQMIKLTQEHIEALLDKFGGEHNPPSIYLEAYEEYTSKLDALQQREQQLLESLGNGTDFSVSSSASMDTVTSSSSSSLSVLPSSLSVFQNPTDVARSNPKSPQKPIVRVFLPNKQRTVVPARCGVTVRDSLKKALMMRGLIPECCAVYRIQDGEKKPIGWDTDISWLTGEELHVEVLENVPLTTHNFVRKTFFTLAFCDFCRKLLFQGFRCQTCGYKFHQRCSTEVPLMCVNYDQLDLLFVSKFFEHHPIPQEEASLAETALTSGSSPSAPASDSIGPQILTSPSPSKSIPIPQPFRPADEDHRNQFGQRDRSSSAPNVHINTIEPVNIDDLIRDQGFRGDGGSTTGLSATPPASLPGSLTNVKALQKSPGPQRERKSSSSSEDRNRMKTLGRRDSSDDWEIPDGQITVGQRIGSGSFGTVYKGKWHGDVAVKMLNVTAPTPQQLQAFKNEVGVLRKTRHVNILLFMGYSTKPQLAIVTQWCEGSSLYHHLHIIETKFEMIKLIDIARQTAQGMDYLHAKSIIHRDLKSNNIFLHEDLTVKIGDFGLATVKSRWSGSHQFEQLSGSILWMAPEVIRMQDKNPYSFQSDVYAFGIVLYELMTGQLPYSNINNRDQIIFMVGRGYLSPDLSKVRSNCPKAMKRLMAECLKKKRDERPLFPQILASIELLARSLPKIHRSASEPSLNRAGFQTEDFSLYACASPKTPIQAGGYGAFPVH
The experiment in a line: AlphaScreen kinase assay, B-Raf. Format: biochemical. The note with it: read-out: IC50, activity toward kinase B-Raf.

A further data set has as its target T2, B-Raf V600E (Homo sapiens, UniProt P15056, V600E).
T2 construct: P4254. pFastBacBD-CDC37 BRAF D437-K722-X, V600E; His6 with pFastBac HT leader (TEV site) (N); made in house; host or cells: Sf9 (baculovirus; chaperone CDC37 co-expressed)
The data set is described as follows: AlphaScreen kinase assay, B-Raf V600E. Format: biochemical. The note with it: read-out: IC50, activity toward kinase B-Raf V600E.

Another data set deals with T3, c-Raf-1 (Homo sapiens, UniProt P04049).
T3 construct: purchased Upstate Biotechnology
T3 sequence (P04049 whole entry): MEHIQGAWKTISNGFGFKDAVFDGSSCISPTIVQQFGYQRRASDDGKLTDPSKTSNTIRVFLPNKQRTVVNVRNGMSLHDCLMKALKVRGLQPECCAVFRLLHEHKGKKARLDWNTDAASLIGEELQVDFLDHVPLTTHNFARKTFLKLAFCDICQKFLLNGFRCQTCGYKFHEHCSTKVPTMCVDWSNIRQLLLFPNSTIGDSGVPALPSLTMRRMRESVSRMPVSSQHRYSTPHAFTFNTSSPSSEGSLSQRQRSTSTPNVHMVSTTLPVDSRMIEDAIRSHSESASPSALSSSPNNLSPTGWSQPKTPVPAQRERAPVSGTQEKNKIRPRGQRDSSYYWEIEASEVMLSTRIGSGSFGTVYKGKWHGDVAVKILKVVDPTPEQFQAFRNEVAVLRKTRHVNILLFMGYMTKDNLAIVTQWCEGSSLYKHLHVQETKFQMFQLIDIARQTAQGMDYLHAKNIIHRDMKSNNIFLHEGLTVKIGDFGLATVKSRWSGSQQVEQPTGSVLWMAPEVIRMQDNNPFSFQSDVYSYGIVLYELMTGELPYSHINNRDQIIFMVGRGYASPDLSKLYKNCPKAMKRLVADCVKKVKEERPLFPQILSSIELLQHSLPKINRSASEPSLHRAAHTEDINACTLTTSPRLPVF
The data set is described as follows: AlphaScreen kinase assay, c-Raf-1. Format: biochemical. The note with it: read-out: IC50, activity toward kinase c-Raf-1.

Another data set addresses T4, Flt3 (Homo sapiens, UniProt P36888).
T4 construct: purchased Invitrogen (assay run by Invitrogen)
T4 sequence (P36888 27-993): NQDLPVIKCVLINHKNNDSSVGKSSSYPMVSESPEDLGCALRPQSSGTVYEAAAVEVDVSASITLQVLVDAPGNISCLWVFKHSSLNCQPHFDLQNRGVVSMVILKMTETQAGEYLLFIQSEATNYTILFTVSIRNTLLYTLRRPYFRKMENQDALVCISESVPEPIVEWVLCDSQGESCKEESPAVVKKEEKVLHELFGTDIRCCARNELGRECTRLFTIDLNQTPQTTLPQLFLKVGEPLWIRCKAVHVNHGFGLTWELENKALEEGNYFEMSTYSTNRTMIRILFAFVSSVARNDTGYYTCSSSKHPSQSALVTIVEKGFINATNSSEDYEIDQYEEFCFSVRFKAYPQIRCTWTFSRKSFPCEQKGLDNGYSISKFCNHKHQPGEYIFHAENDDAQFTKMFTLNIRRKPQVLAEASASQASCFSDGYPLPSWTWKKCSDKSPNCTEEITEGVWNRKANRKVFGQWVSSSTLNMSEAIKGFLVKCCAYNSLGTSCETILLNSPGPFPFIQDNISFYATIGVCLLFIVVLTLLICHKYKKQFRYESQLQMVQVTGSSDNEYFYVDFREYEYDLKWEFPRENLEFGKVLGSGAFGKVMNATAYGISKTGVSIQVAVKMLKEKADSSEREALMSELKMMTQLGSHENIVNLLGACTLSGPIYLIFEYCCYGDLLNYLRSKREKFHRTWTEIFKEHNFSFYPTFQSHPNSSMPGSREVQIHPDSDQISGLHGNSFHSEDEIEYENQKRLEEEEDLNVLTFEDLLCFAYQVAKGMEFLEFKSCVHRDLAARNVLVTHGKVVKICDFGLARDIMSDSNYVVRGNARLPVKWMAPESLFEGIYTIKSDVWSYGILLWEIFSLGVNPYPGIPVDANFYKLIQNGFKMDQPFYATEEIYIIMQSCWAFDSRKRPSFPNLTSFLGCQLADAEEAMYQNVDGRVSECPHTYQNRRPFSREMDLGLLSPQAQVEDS
The experiment in a line: Z'-Lyte FRET kinase assay (Invitrogen), Flt3. It is filed as biochemical. The note with it: read-out: IC50, activity toward kinase Flt3. An excerpt:
The effect of potential modulators of kinase activity can be measured in a variety of different assays known in the art. For example, direct radiometric, indirect FRET or AlphaScreen assays may be used to assess the level of phosphorylation of a substrate in the presence of test compounds in order to determine the inhibitory affect of the compound on the kinase. Invitrogen (Carlsbad, Calif.) uses a FRET based assay for Btk, EGFR, EphB2, Flt3, lrak4, Kdr, MAP2K1, MAPKAPK2, PDGFRB, PKC theta, Stk6 and Yes. For these assays, compounds of the invention were screened by Invitrogen using Z′-Lyte™ kinase assay.
Briefly, the Invitrogen kinase assay involves use of a specific peptide substrate optimized for each kinase, containing a fluorophore at each end that make up the FRET pair. The peptide sensitivity to proteolytic cleavage depends on phosphorylation of the peptide. Non-phosphorylated peptide is cleaved by a protease while peptide phosphorylated by the kinase is not cleaved. Cleavage of the peptide disrupts the FRET between the donor (coumarin) and acceptor (fluorescein) fluorophores, resulting in an increase in the ratio of donor emission to acceptor emission. The emission ratio of coumarin to fluorescein is used to assess the reaction progress. The extent of phosphorylation is determined from the emission ratio, which is low when the kinase is active (phosphorylated peptide is not cleaved, FRET pair connected) or higher for inhibited kinase (non-phosphorylated peptide is cleaved, FRET pair separated). Thus, the assay involves a kinase reaction in the presence of varying concentrations of a given compound, a development reaction with site specific protease, and detection of the fluorescent emission ratio of coumarin and fluorscein. […] Reaction conditions for each kinase are determined to provide optimal reaction times, incubation temperature, kinase and ATP concentrations. Test samples are made up in 1× kinase buffer (50 mM HEPES pH 7.5, 50 mM MgCl2, 5 mM EGTA, 0.05% BRIJ-35) and compound at desired concentration prepared in DMSO such that the final DMSO is 1%. […] Typically, assay plates are prepared to 10 μl final volume per sample, adding 2.5 μl of compound at 4× the desired concentration in 4% DMSO (serial dilution of compound provides concentration curve), 5 μl of the desired kinase mixed with Z′-LYTE™ peptide substrate (2× in 2× kinase buffer, final peptide at 2 μM), and 2.5 μl of 4×ATP solution. All kinase except for MAP2K1 were at 10 μM ATP in the kinase reaction, while MAP2K1 was at 100 μM. Samples are mixed and the kinase reaction is incubated 1 hour at room temperature, after which 5 μl of development solution is added and mixed. After incubation for another 1 hour at room temperature, 5 μl of stop reagent is added to each sample and mixed. The fluorescence signals are measured to determine the emission ratio.

For another data set, the target named is T5, Kdr (Homo sapiens, UniProt P35968).
T5 construct: purchased Invitrogen (assay run by Invitrogen)
T5 sequence (P35968 20-1356): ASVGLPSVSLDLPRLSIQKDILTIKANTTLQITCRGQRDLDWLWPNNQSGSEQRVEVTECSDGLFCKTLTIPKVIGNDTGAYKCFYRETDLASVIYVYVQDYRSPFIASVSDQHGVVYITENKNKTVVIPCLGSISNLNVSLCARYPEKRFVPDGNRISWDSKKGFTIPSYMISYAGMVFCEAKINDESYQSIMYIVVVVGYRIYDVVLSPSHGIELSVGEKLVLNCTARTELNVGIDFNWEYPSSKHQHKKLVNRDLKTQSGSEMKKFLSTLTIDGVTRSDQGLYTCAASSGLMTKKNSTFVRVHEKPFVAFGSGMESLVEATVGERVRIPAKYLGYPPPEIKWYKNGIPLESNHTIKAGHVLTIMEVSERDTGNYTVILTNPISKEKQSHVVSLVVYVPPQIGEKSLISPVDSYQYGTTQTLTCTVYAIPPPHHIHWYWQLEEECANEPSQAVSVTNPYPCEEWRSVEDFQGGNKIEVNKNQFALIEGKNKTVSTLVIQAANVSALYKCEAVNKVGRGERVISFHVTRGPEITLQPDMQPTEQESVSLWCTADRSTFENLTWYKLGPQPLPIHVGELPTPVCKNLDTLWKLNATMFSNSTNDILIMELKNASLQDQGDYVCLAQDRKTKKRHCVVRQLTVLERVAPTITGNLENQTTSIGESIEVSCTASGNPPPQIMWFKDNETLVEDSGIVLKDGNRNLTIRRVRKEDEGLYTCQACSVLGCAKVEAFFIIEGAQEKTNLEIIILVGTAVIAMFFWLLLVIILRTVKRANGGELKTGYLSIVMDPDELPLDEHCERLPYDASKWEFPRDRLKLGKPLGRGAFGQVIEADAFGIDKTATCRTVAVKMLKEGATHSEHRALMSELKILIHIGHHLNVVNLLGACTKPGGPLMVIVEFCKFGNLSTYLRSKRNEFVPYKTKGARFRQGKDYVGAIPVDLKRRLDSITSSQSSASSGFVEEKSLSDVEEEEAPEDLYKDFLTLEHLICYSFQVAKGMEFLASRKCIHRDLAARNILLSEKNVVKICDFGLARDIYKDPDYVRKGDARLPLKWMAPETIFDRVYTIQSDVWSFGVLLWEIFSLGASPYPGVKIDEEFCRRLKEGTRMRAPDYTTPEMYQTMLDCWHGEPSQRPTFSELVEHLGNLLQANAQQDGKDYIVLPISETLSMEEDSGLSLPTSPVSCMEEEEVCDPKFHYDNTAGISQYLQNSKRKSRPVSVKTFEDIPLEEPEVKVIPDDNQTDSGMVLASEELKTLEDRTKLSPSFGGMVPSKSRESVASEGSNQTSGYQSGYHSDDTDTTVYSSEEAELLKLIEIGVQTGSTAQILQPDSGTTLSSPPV
The experiment in a line: Z'-Lyte FRET kinase assay (Invitrogen), Kdr. It is filed as biochemical. The note with it: read-out: IC50, activity toward kinase Kdr.

The target in a further data set is ALK (Homo sapiens, UniProt Q9UM73). The data set is described as follows: AlphaScreen kinase assay, ALK. It is filed as biochemical. The note with it: read-out: IC50, activity toward kinase ALK. From the text:
(§1) AlphaScreen assay was used to screen additional kinases. The assay is similarly dependent on the phosphorylation of a peptide substrate. In this assay, an antibody that recognizes phosphorylated substrate is bound to an acceptor bead. The peptide substrate is attached to biotin, which binds to a donor head that contains streptavidin. Thus phosphorylated substrate is bound by antibody and streptavidin, bringing the donor and acceptor heads into close proximity when kinase is not inhibited. The donor produces singlet oxygen which results in emission from the acceptor when they are in close proximity. Conversely, when kinase is inhibited, the donor and acceptor beads are not associated and the emission from the acceptor is reduced.
(§2) AlphaScreen assays were done using compounds dissolved in DMSO to a concentration of 20 mM. The compounds were diluted accordingly to the desired final concentrations in each sample well, using 1:3 serial dilution for a total of 8 concentration points.

The target of the next data set is Frk (Homo sapiens, UniProt P42685). The data set is described as follows: AlphaScreen kinase assay, Frk. It is filed as biochemical. The note with it: read-out: IC50, activity toward kinase Frk. The gist of the method: (§3)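 Peptide phosphorylation detected by proximity: streptavidin donor beads bind biotinylated substrate, acceptor beads carry antibody to phosphorylated substrate, singlet oxygen transfer gives emission. Dose-response over 8 points (1:3 steps); stocks 20 mM in DMSO.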
Chain of Frk (P42685 whole entry): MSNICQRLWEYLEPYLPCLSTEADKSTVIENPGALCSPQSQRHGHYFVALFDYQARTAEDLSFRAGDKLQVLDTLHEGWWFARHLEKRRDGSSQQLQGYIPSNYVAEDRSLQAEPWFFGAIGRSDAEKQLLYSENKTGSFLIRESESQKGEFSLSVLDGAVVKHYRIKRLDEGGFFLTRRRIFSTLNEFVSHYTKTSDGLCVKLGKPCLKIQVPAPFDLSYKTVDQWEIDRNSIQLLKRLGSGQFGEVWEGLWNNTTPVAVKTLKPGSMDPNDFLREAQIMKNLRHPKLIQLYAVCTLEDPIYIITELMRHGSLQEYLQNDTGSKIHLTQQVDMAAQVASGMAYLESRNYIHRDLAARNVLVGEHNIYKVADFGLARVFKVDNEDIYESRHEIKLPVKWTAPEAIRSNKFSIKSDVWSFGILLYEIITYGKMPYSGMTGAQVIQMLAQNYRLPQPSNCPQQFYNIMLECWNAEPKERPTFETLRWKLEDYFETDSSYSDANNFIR

The target of a further data set is TrkA (Homo sapiens, UniProt P04629). The experiment in a line: AlphaScreen kinase assay, TrkA. The note with it: read-out: IC50, activity toward kinase TrkA. It is filed as biochemical.
Chain of TrkA (P04629 33-796): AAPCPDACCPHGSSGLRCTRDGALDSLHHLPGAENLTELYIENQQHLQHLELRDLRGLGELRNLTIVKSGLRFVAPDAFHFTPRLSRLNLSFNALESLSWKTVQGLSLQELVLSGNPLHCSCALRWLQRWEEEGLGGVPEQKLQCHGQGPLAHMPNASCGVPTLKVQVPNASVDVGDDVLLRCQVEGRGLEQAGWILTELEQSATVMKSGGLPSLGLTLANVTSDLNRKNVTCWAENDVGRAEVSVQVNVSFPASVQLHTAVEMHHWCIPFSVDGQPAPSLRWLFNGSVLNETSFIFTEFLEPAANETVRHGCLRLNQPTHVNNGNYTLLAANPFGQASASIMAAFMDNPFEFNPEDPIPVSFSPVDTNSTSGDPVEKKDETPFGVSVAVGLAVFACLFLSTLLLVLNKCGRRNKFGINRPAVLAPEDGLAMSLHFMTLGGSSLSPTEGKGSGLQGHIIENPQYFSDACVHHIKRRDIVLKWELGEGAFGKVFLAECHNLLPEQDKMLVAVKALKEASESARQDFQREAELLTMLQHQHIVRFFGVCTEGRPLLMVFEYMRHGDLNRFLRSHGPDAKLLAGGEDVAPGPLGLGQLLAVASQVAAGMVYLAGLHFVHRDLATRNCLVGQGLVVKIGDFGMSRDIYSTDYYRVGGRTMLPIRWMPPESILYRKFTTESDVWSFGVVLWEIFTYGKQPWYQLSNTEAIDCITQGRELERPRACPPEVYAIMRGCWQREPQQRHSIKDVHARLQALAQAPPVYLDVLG
From the text: as §1, §2

Another data set concerns the target Brk (Homo sapiens, UniProt Q13882). The experiment in a line: AlphaScreen kinase assay, Brk. Format: biochemical. The note with it: read-out: IC50, activity toward kinase Brk. The method, boiled down:
as §3

The subject of data set [3] is human gastric cancer cell line MKN28. The note with it: cited from earlier work.
The next data set deals with U87MG glioma cells. The note with it: cited from earlier work.

T2 sequence (P15056 with tags, fused parts or gaps V600E): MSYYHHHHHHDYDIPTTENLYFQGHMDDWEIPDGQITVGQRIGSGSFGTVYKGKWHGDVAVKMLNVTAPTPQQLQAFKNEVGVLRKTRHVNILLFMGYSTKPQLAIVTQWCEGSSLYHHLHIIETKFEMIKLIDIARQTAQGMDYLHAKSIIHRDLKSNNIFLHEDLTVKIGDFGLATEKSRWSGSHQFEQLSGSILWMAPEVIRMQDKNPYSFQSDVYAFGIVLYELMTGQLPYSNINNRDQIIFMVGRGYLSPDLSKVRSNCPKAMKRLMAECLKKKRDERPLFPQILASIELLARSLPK
Chain of Brk (Q13882 whole entry): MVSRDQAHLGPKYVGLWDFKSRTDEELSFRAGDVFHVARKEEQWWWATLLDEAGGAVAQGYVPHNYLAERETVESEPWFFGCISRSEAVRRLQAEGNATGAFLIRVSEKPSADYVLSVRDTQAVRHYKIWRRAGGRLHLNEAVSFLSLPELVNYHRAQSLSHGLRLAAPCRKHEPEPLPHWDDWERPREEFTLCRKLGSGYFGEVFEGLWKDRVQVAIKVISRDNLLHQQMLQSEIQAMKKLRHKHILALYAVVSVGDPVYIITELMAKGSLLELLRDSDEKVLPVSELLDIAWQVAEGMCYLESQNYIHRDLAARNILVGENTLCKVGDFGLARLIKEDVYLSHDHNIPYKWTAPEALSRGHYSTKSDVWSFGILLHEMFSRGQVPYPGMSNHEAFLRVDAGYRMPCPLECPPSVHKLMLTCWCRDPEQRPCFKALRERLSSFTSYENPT

In the case of `Cc1cc2ncc(-c3ccccc3)nc2cc1C` [AG1295], the “cytotoxicity to AML blasts” value in data set [1] is on record as “specifically cytotoxic”.

Take `CCSCc1ccc2c(c1)c1c3c(c4c5cc(CSCC)ccc5n5c4c1n2[C@H]1C[C@](O)(C(=O)OC)[C@]5(C)O1)CNC3=O` [CEP-1347]: the “cytokine production (TNF-alpha, IL-6, MCP-1)” value in [2] is recorded as “reduced cytokine production”. For the same molecule, in the data set with brain TNF production, the “brain TNF production” value was “inhibited brain TNF production”.

Regarding `CCCS(=O)(=O)Nc1ccc(F)c(C(OC)c2c[nH]c3ncc(OC)cc23)c1F` (stereo not shown) [Compound P-1244, Propane-1-sulfonic acid {2,4-difluoro-3-[methoxy-(5-methoxy-1H-pyrrolo[2,3-b]pyridin-3-yl)-methyl]-phenyl}-amide], the negative logarithm of the IC50 (pIC50) on B-Raf, at B-Raf V600E, on c-Raf-1, at Flt3, on Kdr and on ALK was not below 5.00 each time. Besides, the pIC50 on Frk, at TrkA and at Brk was not below 5.00 in each case.

With `CS(=O)(=O)Nc1ccc([N+](=O)[O-])cc1OC1CCCCC1` [NS-398], in data set [3], the “proliferation and growth of MKN28 cells” value is “significantly inhibit proliferation and growth”.

With `CN[C@@H]1C[C@H]2O[C@@](C)([C@@H]1OC)n1c3ccccc3c3c4c(c5c6ccccc6n2c5c31)C(=O)N[C@H]4O` [UCN-01, 7-hydroxystaurosporine], in the data set with U87MG glioma cells (combined with temozolomide), the “increase of the cytotoxicity of TMZ” value is 5 fold. Further, in the data set with U87MG glioma cells (without TMZ), the “toxicity of the inhibitor alone” value is on record as “not in itself toxic”.

On to `COc1ccc2c(c1)c(CC(=O)O)c(C)n2C(=O)c1ccc(Cl)cc1` [indomethacin], for which, in data set [3], the “proliferation and growth of MKN28 cells” value is “significantly inhibit proliferation and growth”.
